According to paper PMC11677527, “Predicting Pharmacokinetics of Active Constituents in Spatholobi caulis by Using Physiologically Based Pharmacokinetic Models” (Pharmaceuticals, 2024):
Like-named read-outs stand apart in the source and are kept apart here.

Columns and labels:
Caco-2 cell monolayer = system: Caco-2 cell monolayer; design: method as in PMID 36680806, PMID 26501241; conditions: Caco-2 cell monolayer model; cited from earlier work
[1] = design: method as in PMID 34303214; conditions: rats, p.o. SPC 30 g crude drug/kg; doses of 1-4: 0.062, 0.11, 0.71, 1.31 mg/kg; cited from earlier work
[2] = Observed pharmacokinetics in rats after oral SPC (previous study); assay type: in vivo, rat; conditions: p.o. SPC
[3] = Verification pharmacokinetic experiment in rats, SPC 60 g crude drug/kg by gavage, UFLC-MS/MS, DAS 2.0; assay type: in vivo, rat
Method in brief: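 Rats received SPC suspension at 60 g crude drug/kg by gavage. Orbital blood was taken at 0.083–12 h into heparin, and plasma 3′-methoxydaidzein, 8-O-methylretusin, daidzin and isolariciresinol were measured by UFLC-MS/MS (C18, MRM, carbamazepine internal standard). PK parameters were calculated from concentration-time curves.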

[4] = compartment model parameters, DAS 2.0, rats p.o. SPC 60 g crude drug/kg, Mean, 5 rats
[5] = statistical moment parameters, DAS 2.0, rats p.o. SPC 60 g crude drug/kg, Mean, 5 rats
[6] = statistical moment parameters, DAS 2.0, rats p.o. SPC 60 g crude drug/kg, Mean, 5 rats, in µg·h²/mL

time of slight secondary absorption peak [2]: 6 h
K10 [3, 4]: 7.512 h⁻¹
K12 [3, 4]: 0.448 h⁻¹
K21 [3, 4]: 0.247 h⁻¹
Ka [3, 4]: 5.032 h⁻¹
Tlag [3, 4]: 0 h
V1/F [3, 4]: 29.573 L/kg
t1/2Ka [3, 4]: 0.175 h
t1/2α [3, 4]: 0.433 h
concentration at 0.083 h ([3]; rat, plasma, oral, time 0.083 h, rats p.o. SPC 60 g crude drug/kg, doses of 1-4: 0.124, 0.22, 1.4, 2.62 mg/kg, 5 rats): 15.4 ng/mL
concentration at 0.25 h ([3]; rat, plasma, oral, time 0.25 h, rats p.o. SPC 60 g crude drug/kg, doses of 1-4: 0.124, 0.22, 1.4, 2.62 mg/kg, 5 rats): 41.5 ng/mL
concentration at 0.5 h ([3]; rat, plasma, oral, time 0.5 h, rats p.o. SPC 60 g crude drug/kg, doses of 1-4: 0.124, 0.22, 1.4, 2.62 mg/kg, 5 rats): 41.7 ng/mL
concentration at 0.75 h ([3]; rat, plasma, oral, time 0.75 h, rats p.o. SPC 60 g crude drug/kg, doses of 1-4: 0.124, 0.22, 1.4, 2.62 mg/kg, 5 rats): 27.6 ng/mL
concentration at 1 h ([3]; rat, plasma, oral, time 1 h, rats p.o. SPC 60 g crude drug/kg, doses of 1-4: 0.124, 0.22, 1.4, 2.62 mg/kg, 5 rats): 22.2 ng/mL
concentration at 1.5 h ([3]; rat, plasma, oral, time 1.5 h, rats p.o. SPC 60 g crude drug/kg, doses of 1-4: 0.124, 0.22, 1.4, 2.62 mg/kg, 5 rats): 8.29 ng/mL
concentration at 2 h ([3]; rat, plasma, oral, time 2 h, rats p.o. SPC 60 g crude drug/kg, doses of 1-4: 0.124, 0.22, 1.4, 2.62 mg/kg, 5 rats): 7.03 ng/mL
concentration at 3 h ([3]; rat, plasma, oral, time 3 h, rats p.o. SPC 60 g crude drug/kg, doses of 1-4: 0.124, 0.22, 1.4, 2.62 mg/kg, 5 rats): 4.27 ng/mL
concentration at 4 h ([3]; rat, plasma, oral, time 4 h, rats p.o. SPC 60 g crude drug/kg, doses of 1-4: 0.124, 0.22, 1.4, 2.62 mg/kg, 5 rats): 3.41 ng/mL
concentration at 6 h ([3]; rat, plasma, oral, time 6 h, rats p.o. SPC 60 g crude drug/kg, doses of 1-4: 0.124, 0.22, 1.4, 2.62 mg/kg, 5 rats): 2.01 ng/mL
AUC(0-t) ([3]; rat, plasma, po, 2.62 mg/kg, compartment model parameters, DAS 2.0, rats p.o. SPC 60 g crude drug/kg, Mean, 5 rats, read-out: AUC(0-t)): 46.4 ng·h/mL
AUC(0-inf) ([3]; rat, plasma, po, 2.62 mg/kg, compartment model parameters, DAS 2.0, rats p.o. SPC 60 g crude drug/kg, Mean, 5 rats, read-out: AUC(0-∞)): 52.8 ng·h/mL
CL/F ([3]; rat, plasma, po, 2.62 mg/kg, compartment model parameters, DAS 2.0, rats p.o. SPC 60 g crude drug/kg, Mean, 5 rats, read-out: CL/F (converted)): 1660 mL/min/kg
half-life ([3]; rat, plasma, po, 2.62 mg/kg, compartment model parameters, DAS 2.0, rats p.o. SPC 60 g crude drug/kg, Mean, 5 rats, read-out: t1/2β (converted)): 17.4 h
AUC(0-t) ([3]; rat, plasma, po, 2.62 mg/kg, rats, p.o. SPC 60 g crude drug/kg, doses of 1-4: 0.124, 0.22, 1.42, 2.62 mg/kg, n = 5, read-out: AUC0→t Val.): 55.7 ng·h/mL
AUC(0-inf) ([3]; rat, plasma, po, 2.62 mg/kg, rats, p.o. SPC 60 g crude drug/kg, doses of 1-4: 0.124, 0.22, 1.42, 2.62 mg/kg, n = 5, read-out: AUC0→∞ Val.): 59.3 ng·h/mL
Cmax ([3]; rat, plasma, po, 2.62 mg/kg, rats, p.o. SPC 60 g crude drug/kg, doses of 1-4: 0.124, 0.22, 1.42, 2.62 mg/kg, n = 5, read-out: Cmax Val.): 41.7 ng/mL
AUC(0-t) ([3]; rat, plasma, po, 2.62 mg/kg, statistical moment parameters, DAS 2.0, rats p.o. SPC 60 g crude drug/kg, Mean, 5 rats, read-out: AUC(0-t)): 55.7 ng·h/mL
AUC(0-inf) ([3]; rat, plasma, po, 2.62 mg/kg, statistical moment parameters, DAS 2.0, rats p.o. SPC 60 g crude drug/kg, Mean, 5 rats, read-out: AUC(0-∞)): 59.3 ng·h/mL
CL/F ([3]; rat, plasma, po, 2.62 mg/kg, statistical moment parameters, DAS 2.0, rats p.o. SPC 60 g crude drug/kg, Mean, 5 rats, read-out: CLz/F (converted)): 738 mL/min/kg
Cmax ([3]; rat, plasma, po, 2.62 mg/kg, statistical moment parameters, DAS 2.0, rats p.o. SPC 60 g crude drug/kg, Mean, 5 rats, read-out: Cmax): 41.7 ng/mL
MRT last ([3]; rat, plasma, po, 2.62 mg/kg, statistical moment parameters, DAS 2.0, rats p.o. SPC 60 g crude drug/kg, Mean, 5 rats, read-out: MRT(0-t)): 1.48 h
MRT inf ([3]; rat, plasma, po, 2.62 mg/kg, statistical moment parameters, DAS 2.0, rats p.o. SPC 60 g crude drug/kg, Mean, 5 rats, read-out: MRT(0-∞)): 2.08 h
Tmax ([3]; rat, plasma, po, 2.62 mg/kg, statistical moment parameters, DAS 2.0, rats p.o. SPC 60 g crude drug/kg, Mean, 5 rats, read-out: Tmax): 0.3 h
Vd/F ([3]; rat, plasma, po, 2.62 mg/kg, statistical moment parameters, DAS 2.0, rats p.o. SPC 60 g crude drug/kg, Mean, 5 rats, read-out: Vz/F): 111 L/kg
half-life ([3]; rat, plasma, po, 2.62 mg/kg, statistical moment parameters, DAS 2.0, rats p.o. SPC 60 g crude drug/kg, Mean, 5 rats, read-out: t1/2z (converted)): 1.73 h
Cz [3, 5]: 1.39 µg/L
VRT(0-t) [3, 5]: 2.067 h^2
VRT(0-∞) [3, 5]: 6.027 h^2
elimination rate constant [3, 5]: 0.412 h⁻¹
AUMC(0-t) [3, 6]: 82.484
AUMC(0-∞) [3, 6]: 123.911
Compound: COc1cc([C@H]2c3cc(O)c(OC)cc3C[C@@H](CO)[C@@H]2CO)ccc1O [Constituent 4, isolariciresinol]
Papp (Caco-2 cell monolayer): 2.2 ×10⁻⁶ cm/s
AUC0→t Obs. [1]: 34.7 ng·h/mL
AUC0→∞ Obs. [1]: 38.3 ng·h/mL
Cmax Obs. [1]: 26.2 ng/mL
Tmax Obs. [1]: 0.31 h
